Laboratory results from patent publication US20160295854A1, “COMPOSITION AND METHOD FOR EX-VIVO IMMUNOMODULATION AND/OR PRESERVATION OF ORGANS, METHODS AND USE” (UNIAO BRASILEIRA DE EDUCACAO E ASSISTENCIA , MANTENEDORA DA …, priority 2014, published 2016).

Tests used:
STAT3 = test: p-STAT3 intracellular marking in BMDCs; type: cell-based, mice (Mus musculus); conditions: BMDCs, 30 μM inhibitor previous to Hsp70
Protocol: As positive control, the cells were stimulated with […] of phorbol myristate acetate (PMA) for 30 minutes. After the stimuli in the periods mentioned, the cells were fixed with Cytofix Buffer (BD Biosciences) for 10 minutes at 37° C. and permeated with Phosflow Perm Buffer III (BD Biosciences) for 30 minutes on ice. After such procedures, the cells were marked for p-ERK1/2 and p-STAT3.
For analyzing the recipients T cells, the cells were marked for CD4 (GK1.5), CD8a (53-6.7), Foxp3 (MF23), Ki67 (B56) achieved from BD Biosciences. […] The levels of phosphorylated ERK and STAT3 were determined using antibodies for p-ERK1/2 and p-STAT3 (BD Biosciences) in BMDCs previously fixed and permeablized. The cells were subsequently analyzed in the flow cytometer FACSCanto II (BD Biosciences) with the BD FACSDiva (BD Biosciences) program. The data achieved were analyzed with the Flowjo program (version 7.6.5, Tree Star).
The p-ERK expression was measured by flow cytometry. […] The p-STAT3 expression was measured by flow cytometry. […] After that, the IL-10 mRNA levels were measured by Real-time PCR and the concentration of this cytokine by flow cytometry, using the kit CBA Mouse Inflammation. […] After that, the MARCH-I mRNA levels were analyzed by Real-time PCR. […]

splenocytes = test: Epitopes mapping of T cells (splenocytes re-stimulated in vitro); type: cell-based, BALB/c mice; conditions: 5 μg/ml peptide or 60 μg/ml Hsp70, 24 h; for CD4+Foxp3+ (Tregs) cells percentage (FIG. 16 A): compared with DMSO
[1] = tested on: cutaneous allograft (B6 donor skin in BALB/c recipients); test: Murine model of cutaneous allograft, graft immersion-treatment; type: in vivo, mice (Mus musculus)
Text: A method for treating grafts, including allografts, was developed by the inventors of the present invention. Thus, the method treats the grafts (that may be full organs) instead of recipient that will receive the graft, using as tool a classic murine model of skin transplantation and well established. Such method, to the light of the inventors, may be considered as new and inventive. The said model consists of a complete incompatibility of MHC molecules and was described by BILLINGHAM & MEDAWAR (1951).
BALB/c recipients, which express the MHC II I-A^d molecule, are anaesthetized and the dorsal stem hairs are removed. In the waxed area, 1 cm^2 of the skin was removed in each recipient mouse and the donor tail skin was sutured in the exposed area. The animals are maintained in individual cages and daily monitored. The graft rejection is confirmed by observing the cyanosis, erythema, erosion and cutaneous graft loss.
This model consists of a complete incompatibility of MHC molecules and was described by BILLINGHAM & MEDAWAR (1951). In this model, the donor mouse B6, which expresses the MHC II I-A^b molecule, is sacrificed. […] After this period, the grafts were sutured in the BALB/c recipients' back, who express the MHC II I-A^d molecule, and the rejection clinical progression is daily monitored.
After that, the grafts were sutured in the BALB/c (I-Ad) animals' back. The animals were daily monitored. ***, p<0.0001. n=22-24 mice per group. The results achieved putting the seven independent experiments together.
After this, these grafts were sutured in BALB/c recipients WT and their rejection were daily monitored.
After this, the grafts were sutured in the BALB/c (I-Ad) animals' back. The animals were daily monitored. *, p<0.05. n=4 mice per group.

MARCH-I = MARCH-I mRNA in DCs by real time PCR; type: cell-based, mice (Mus musculus); conditions: DCs from IL-10 knockout animals, 24 h; compared with DCs WT
Protocol: The supernatants were collected and used for analyzing cytokine. The cells were further treated with 20 ng/ml of Rapamycin (Cell Signaling), 1 μg/ml of Cyclosporine A (Roche) or 20 ng/ml of IL-10 recombinant murine (R&D System) for 24 h and the total RNA was removed.
The total RNA was isolated from the DCs treated using the kit RNAeasy (Qiagen), according to the manufacturer instructions. The total purified RNA concentration was determined with the kit Qubit® RNA Assay Kit (Invitrogen), read in the Qubit® Fluorometer (Invitrogen). 50 ng of the RNA had reverse transcriptase with 100 U of Sensiscript (Qiagen). DNA concentrations were determined with the kit Qubit® dsDNA HS Assay (Invitrogen), read in the Qubit® Fluorometer (Invitrogen). In a final volume of 10 μL, 8 ng of cDNA were applied using some assays Taqman® Gene Expression (Applied Biosystems): IL10 (Mm00439614_m1), March1 (Mm00613524_m1) and β-actin (4352933E), according to the manufacturer recommendations.
The quantitative real time PCR was performed in the instrument StepOne™ Real-Time PCR System (Applied Biosystems). The relative levels of mRNA were calculated according to the comparative method of Ct, described by […] & LIVAK (2008). The β-actin constituent gene was used as setter. Non-treated DCs served as reference for OVA or Hsp70-treated DCs.
After that, IL-10 mRNA levels were analyzed by Real-time PCR. The β-actin was used as a setter. The IL-10 concentration was measured in the cultures supernatant by flow cytometry. […] (C) As in A, however the MARCH-I mRNA levels were analyzed by Real-time PCR. […] DCs IL-10 KO were also treated with Recombinant IL-10. All treatments were performed for 24 h and MARCH-I mRNA levels were analyzed by Real-time PCR. […] After this period, grafts were sutured in the BALB/c animals' back and the acceptance was daily monitored. Graphs expressed on average ±SEM. *, p<0.05; **, p<0.01; ***, […]. n=3-5 mice per group. Representative results of 3 independent experiments.
After this period, the MARCH-I expression increase was analyzed by Real-time PCR.

[2] = tested on: cutaneous allograft (B6 donor skin in BALB/c recipients); test: Cutaneous allograft model, graft immersion followed by topic application; type: in vivo, mice (Mus musculus); conditions: immersion plus 7 days of topic application (group '- 7 days')
Text: That is, animals that received grafts treated with Hsp70 receive the local application of a Hsp70 solution and the same for OVA.
After this, the grafts were sutured in BALB/c (I-A^d) animals' back. […] The animals were daily monitored. (A) Schematic representation of the treatment strategy used in the experiment. (B) Photographic record of the clinical progression of the acute rejection in groups Hsp70 and OVA. […] Data achieved from previous experiments.

## COc1cccc(-c2cc(=O)c3ccccc3o2)c1N [PD98059, reference compound]
STAT3
  STAT3 activation against the stimulus with Hsp70 after ERK inhibition (FIG. 13 E): removed the STAT3 activation

## KYTAPEISARILMKL (Heat Shock Protein HSP70) [Peptide 5]
splenocytes
  CD4+Foxp3+ (Tregs) cells percentage (FIG. 16 A): increase in the Tregs production

## VGGSTRMPAVTDLVK [Peptide 2]
[1]; 60 μg/ml Hsp70 or 15 μg/ml peptide, 60 minutes at 4° C., compared to OVA peptide and peptide 5
  graft acceptance after immersion with Hsp70 or peptides (FIG. 17): strong tendency in lengthen the graft acceptance
splenocytes
  IL-10 production by splenocytes (FIG. 16 B): small increase
  CD4+Foxp3+ (Tregs) cells percentage (FIG. 16 A): quite significant increase

B1: recombinant murine IL-10: IL-10 recombinant murine (R&D System), positive control (protein, UniProt P18893 19-178, looked up)
Interleukin-10: SRGQYSREDNNCTHFPVGQSHMLLELRTAFSQVKTFFQTKDQLDNILLTDSLMQDFKGYLGCQALSEMIQFYLVEVMPQAEKHGPEIKEHLNSLGEKLKTLRMRLRRCHRFLPCENKSKAVEQVKSDFNKLQDQGVYKAMNEFDIFINCIEAYMMIKMKS
MARCH-I
  MARCH-I mRNA levels in DCs IL-10 KO (FIG. 11 D): reestablished partially

B2: OVA: egg albumin (OVA), control protein (protein, UniProt P01012 2-386, looked up)
Ovalbumin: GSIGAASMEFCFDVFKELKVHHANENIFYCPIAIMSALAMVYLGAKDSTRTQINKVVRFDKLPGFGDSIEAQCGTSVNVHSSLRDILNQITKPNDVYSFSLASRLYAEERYPILPEYLQCVKELYRGGLEPINFQTAADQARELINSWVESQTNGIIRNVLQPSSVDSQTAMVLVNAIVFKGLWEKAFKDEDTQAMPFRVTEQESKPVQMMYQIGLFRVASMASEKMKILELPFASGTMSMLVLLPDEVSGLEQLESIINFEKLTEWTSSNVMEERKIKVYLPRMKMEEKYNLTSVLMAMGITDVFSSSANLSGISSAESLKISQAVHAAHAEINEAGREVVGSAEAGVDAASVSEEFRADHPFLFCIKHIATNAVLFFGRCVSP
[2]
  Survival median: 14.0 days
[2]; individual mice
  Survival: 16 days
[1]; graft immersed in 60 μg/mL for 60 minutes, seven independent experiments
  Survival average: 14.0 days
